Data on one molecule can be found in patent publication US8492383B2 (Jewish General Hospital, priority 2002, dated 2013).

The subject of one assay is I83 cell line. The following applies: drug alone, MTT 72 hours.
The test system of assay [1] is lymphocytes from CLL patients. The experiment in a line: MTT cytotoxic assay, lymphocytes from CLL patients. The assay is classed as cell-based, human. The following applies: drug alone.

Values joined by “and” are separate entries in the source; they are usually repeats but may differ in a detail not shown here. Identical values can stand only once.

Regarding `O=C(O)CCCc1ccc(N(CCCl)CCCl)cc1` [CLB, chlorambucil], the LD50 was 40.66 µM and 40.66 ± 2.80 µM in the assay with I83 cell line; 9.29 µM in assay [1] (CLL patient T^1 (previously treated with CLB)); 23.1 µM in assay [1] (CLL patient T^2 (previously treated with CLB)); 5.56 µM in assay [1] (CLL patient T^3 (previously treated with CLB)); 79.7 µM in assay [1] (CLL patient T^4 (previously treated with CLB)); 49.2 µM in assay [1] (CLL patient T^5 (previously treated with CLB)). Besides, the LD50 in assay [1] (CLL patient U^1 (untreated)) stood at 14.6 µM; in assay [1] (CLL patient U^2 (untreated)) it was 28.49 µM; in assay [1] (CLL patient U^3 (untreated)) it was 20.02 µM; in assay [1] (CLL patient U^4 (untreated)) it was 54.2 µM; in assay [1] (CLL patient U^5 (untreated)), 12.27 µM; in assay [1] (CLL patient U^6 (untreated)) it was 18.08 µM. The molecule further registered an LD50 in assay [1] (CLL patient U^7 (untreated)) of 7.84 µM.
